Results on 1 molecule are retold here after patent publication US6958311B2, “Flowering regulators” (Riken, priority 2000, dated 2005).

SMILES strings stand for the structures.

The assay relates to American Blue (Evolvulus pilosus). Description: Flowering of American Blue pots in greenhouse after spraying with brassinazole solution. In kind it is in vivo. The settings on record: sprayed 1000 g/ha on days 0, 7, 14 and 30. An excerpt: In the figure, □ indicates the result of a group treated with the flowering regulator of the present invention (brassinazole), and ∇ indicates the result of an untreated group. The vertical axis indicates a rate of flowering, and the horizontal axis indicates the number of days after the treatment. The arrows indicate the days when the flowering regulator is sprayed. Forty four pots of American Blue (Evolvulus pilosus) of about one month after cutting, which were purchased as-commercial products, were grown in a greenhouse at 22° C. under a natural light condition during the day and an artificial light condition during the night. These pots were divided into two groups, and 22 plants were sprayed with brassinazole [4-(4-chlorophenyl)-2-phenyl-3-(1,2,4-triazoyl)butan-2-ol] solution in an amount of 1000 g/ha on days 0, 7, 14 and 30. The other group (22 plants) was grown under the same conditions except for the treatment with the agent. As the brassinazole solution, 0.5 mg/ml aqueous solution containing 0.1% dimethyl sulfoxide and 0.1% Tween 20 was prepared, and diluted to a 1/10 concentration with water upon use and sprayed by using a spray in the predetermined amount.

`CC(O)(c1ccccc1)C(Cc1ccc(Cl)cc1)n1cncn1` (centres unmarked) [brassinazole, 4-(4-chlorophenyl)-2-phenyl-3-(1,2,4-triazoyl)butan-2-ol]: the flowering accelerating effect entry (compared with the untreated plot) is “clearly demonstrated”. Also, the “flowering (rate of flowering)” value (greenhouse 22° C., 22 plants, untreated plot: flowering on only one plant on day 35) is recorded as “flowering occurred after flower-bud formation”.
